In brackets after ≈: the same amount, converted by molar mass. Where two headings read alike, the source gives them in different places.
What was measured:
HK cells, transporter 31 [1] = conditions: transporter 31 10 μM, pre-incubation (P), cited from earlier work; for IC50: read-out: IC50 (concentration needed to reach 50% inhibition)
in vitro = conditions: human
HeLa Kyoto cells [2] = conditions: with transporter 31; pre-incubation (P); cited from earlier work
HK cells, transporter 31 [3] = experiment: HCHT imaging: inhibition of cytosolic delivery of ETP transporter 31; assay type: cell-based, Human; conditions: inhibitor 1 h; for IC15: read-out: MIC (concentration needed to reach 15% inhibition), transporter 31 10 μM
Description: (§1) Uptake inhibition was measured by the automated HCHT imaging used already to elaborate on cytosolic delivery. For inhibitor screening, HK cells in multiwell plates were incubated with increasing concentrations of inhibitors, followed by fluorescent transporters 28, 31, and 32 at a constant concentration. […] If inhibitors are removed before the addition of transporters 28, 31, and 32, the method is referred to as “pre-incubation”. This is of interest to minimize exchange between the transporter and the inhibitor but is often problematic because dynamic covalent exchange between the inhibitor and cellular target can also be reversed and thus lost. The complementary “co-incubation” operates without inhibitor removal before the addition of transporters 28, 31, and 32.
(§2) 536/40 nm emission filter, and red with 531/40 nm excitation filter and 593/40 nm emission […]
(§3) 4.3. HCHT Inhibitor Screening
(§4) Pre-Incubation Method. As in ref. S1. HeLa Kyoto cells were seeded at 8 ×10^4 cells/mL in FluoroBrite DMEM + 10% FBS on μ-Plate 96-well Black ibiTreat sterile and incubated at 37 °C with 5% CO 2 for 24 h. Then, the medium was removed and cells were washed with PBS ([…]), fresh FluoroBrite DMEM medium (4 × 150 μL/well) was added into the cells using a plate washer (Biotek EL406®), keeping a final volume of 135 μL/well. Different concentrations of the inhibitors were prepared by serial dilution with 10% final concentration DMSO (10× in PBS). The solution of compounds 4 and 33 was prepared final DMSO concentration of 10% in each dilution (10× in PBS). These inhibitor solutions (10× final concentration), transporter 28 (10× in DMEM), transporters 31 and 32 (10× in PBS) a solution of HOE (100 μg/mL) and PI (10 μg/mL) in PBS were prepared freshly in a 96-well V-bottom plate before adding to the cells. The inhibitor solutions from the V-bottom plate were added to the cells (15 μL/well) in a final volume of 150 μL/well using an electronic multichannel pipette and cells were incubated for 1 h at 37 °C with 5% CO 2. After this incubation, cells were washed again with PBS and DMEM using the plate washer (in the way mentioned above), and transporter 28 , 31 or 32 from the V-bottom plate was added (15 μL/well) to the cells in a final volume of 150 μL/well. A final concentration of each transporter 28 , 31 and 32 was 5 μM, 10 μM and 0.5 μM, respectively, except for the control wells, where only PBS was added (15 μL/well). Cells treated with transporter 28 or 31 were incubated for 30 min, and cells treated with 32 were incubated for 2 h at 37 °C with 5% CO 2. After that, the cells were washed with PBS and DMEM using the plate washer, and the solution of Hoechst 33342 and PI from the V-bottom plate was added (15 μL/well) to the cells in a final volume of 150 μL/well. After 15 min of incubation at 37 °C with 5% CO 2, the cells were washed and kept in clean FluoroBrite
(§5) DMEM. For live cell imaging, samples were kept at 37 °C with 5% CO 2 during the microscope imaging. The distribution of fluorescence stained cells was analyzed without fixing using an […]

HeLa Kyoto cells [4] = experiment: Relative viability (HOE/PI) in HCHT screening
Description: One advantage of HCHT imaging of cellular uptake compared to flow cytometry[38],[42],[43] is that it simultaneously gives information on toxicity and intracellular localization. […] Information on the intracellular localization of reporters can be quantified through segmentation of cellular compartments stained with specific markers.[52]
as §1
Relative cell viability ( RV) for each condition in the presence of inhibitors was calculated […]
of the relative cell viability ( RVrel) to the concentration of inhibitors ( cinhibitor ) was plotted and fitted with Equation (S19) to retrieve the concentration causing 50% cell growth inhibition (RV50) value and the Hill coefficient ( n).

[5] = tested on: A549 human lung alveolar basal epithelium cells overexpressing ACE2 and TMPRSS2; conditions: inhibitor 5 μM
HeLa Kyoto (HK) cells = experiment: Cellular uptake of fluorescent transporters (HCHT imaging, SDCM); assay type: cell-based, Human; conditions: 10, 20, 50 μM transporter
Description: Cellular uptake was measured by automated high-content high-throughput (HCHT) imaging.[51] This method provides access to biologically meaningful and statistically relevant data from thousands of cells within a very short time. For the uptake monitoring, HeLa Kyoto (HK) cells in multiwell plates were incubated with the fluorescent transporters 28–30 for 1 h, washed, and imaged by spinning disk confocal microscopy (SDCM) to quantify the fluorescent transporters that have entered the cells. […] The better activity of CTOs 28 compared to 29 was consistent with the concept of hydrophobic directing groups, expected to guide CTOs into an aprotic environment within membranes or proteins to activate the sulfinate exchanger and thus turn on dynamic covalent exchange cascades with cellular partners (Figure 2D). The passive diffusion of transporter 28 across the membrane is conceivable but unlikely because this process can be inhibited by other CAXs (see the next section).
4. High-Content High-Throughput (HCHT) Inhibitor Screening […]
The distribution of fluorescence stained cells was analyzed without fixing using an IXM-C automated microscope. 4 images per well were recorded using 10× objective lens, and fluorescent images were acquired with three channels, blue with 377/50 nm excitation filter and 477/60 nm emission filter, green for FITC transporter with 475/34 nm excitation filter and […]

HK cells, transporter 28 = experiment: HCHT imaging: inhibition of cytosolic delivery of CTO transporter 28; assay type: cell-based, Human; set-up: key to inhibition of CTO 28 uptake (heatmap): –: −: inactive; ++: qualitative inhibition of SC2 uptake; conditions: for IC50 / IC15: Homo sapiens; for IC50: read-out: IC50 (concentration needed to reach 50% inhibition), transporter 28 5 μM; for IC50 / IC15 / MIC (concentration needed to reach 15% inhibition): inhibitor 1 h
Description: as §1, §2, §3, §4, §5

trypsin = experiment: Trypsin inhibition (preliminary, not shown); assay type: biochemical; conditions: 50 μM; preliminary results
cathepsin L = cathepsin L (Homo sapiens, UniProt P07711); experiment: Cathepsin L inhibition (preliminary, not shown); assay type: biochemical; conditions: 50 μM; preliminary results
cathepsin B = cathepsin B (Homo sapiens, UniProt P07858); experiment: Cathepsin B inhibition (preliminary, not shown); assay type: biochemical; conditions: 50 μM; preliminary results
HK cells, transporter 32 = tested on: HK cells, transporter 32; set-up: method as in PMID 34173696; conditions: transporter 32 0.5 or 1 μM, pre-incubation (P), cited from earlier work; for IC50: read-out: IC50 (concentration needed to reach 50% inhibition)
[6] = with transporter 31, co-incubation (C)
[7] = 1 h, read-out: MIC (concentration needed to reach 15% inhibition), transporter 28 5 μM, co-incubation (C)
[8] = transporter 28 5 μM, co-incubation (C)
[9] = Homo sapiens, 1 h, read-out: IC50 (concentration needed to reach 50% inhibition), transporter 31 10 μM, co-incubation (C)
[10] = Homo sapiens, 1 h, co-incubation (C)
[11] = with transporter 28, co-incubation (C)
[12] = transporter 28 5 μM, pre-incubation (P)
[13] = with transporter 28, pre-incubation (P)

Sequence of cathepsin L (P07711 114-333, species assumed): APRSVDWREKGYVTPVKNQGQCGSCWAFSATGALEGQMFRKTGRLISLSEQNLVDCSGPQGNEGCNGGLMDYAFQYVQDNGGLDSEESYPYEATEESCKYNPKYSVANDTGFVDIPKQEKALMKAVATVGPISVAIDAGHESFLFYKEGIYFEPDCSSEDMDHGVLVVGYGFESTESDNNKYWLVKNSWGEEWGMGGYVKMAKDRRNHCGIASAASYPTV

CC(=O)/C=C1/C(=O)N(C)c2ccccc21 [Compound 48, super-cinnamaldehyde, reference compound]
IC50 (HK cells, transporter 31 [1]): 4 µM
MIC (concentration needed to reach 15% inhibition) (HK cells, transporter 31 [1]): <1 µM
viability at 7 h, 5 µM (in vitro): 94%
RV50 (concentration needed to lower relative viability by 50%) (HeLa Kyoto cells [2]): >20 µM

CC(C)(C)OC(=O)NCCNC(=O)O[C@H]1CSS(=O)(=O)C[C@H]1O[Si](C)(C)C(C)(C)C (racemic) [Compound 50]
IC50 (HK cells, transporter 31 [3]; read-out: IC50 (concentration needed to reach 50% inhibition), transporter 31 10 μM, co-incubation (C)): 20 ± 3 µM
MIC (concentration needed to reach 15% inhibition) (HK cells, transporter 31 [3]; transporter 31 10 μM, co-incubation (C)): 5.6 µM
RV50 (concentration needed to lower relative viability by 50%) (HeLa Kyoto cells [4]; [6]): ≈ 20 μM
RV, relative cell viability [5]: 110 ± 10%

CC(C)(C)[Si](C)(C)O[C@H]1CS(=O)(=O)SC[C@@H]1OCC(=O)NCCNC(=S)Nc1ccc(-c2c3ccc(=O)cc-3oc3cc(O)ccc23)c(C(=O)O)c1 [Compound 28]
cellular uptake, fluorescence intensity of HK cells (in words) (HeLa Kyoto (HK) cells): more active than the AspA 30 standard

O=C(CO[C@H]1CSS(=O)(=O)C[C@@H]1O)NCCNC(=S)Nc1ccc(-c2c3ccc(=O)cc-3oc3cc(O)ccc23)c(C(=O)O)c1 [Compound 29]
cellular uptake, fluorescence intensity of HK cells (in words) (HeLa Kyoto (HK) cells): more active than the AspA 30 standard

O=C(N[C@H]1CCS(=O)(=O)SC1)N[C@H]1CCS(=O)(=O)SC1 [Compound 35]
IC50 (HK cells, transporter 28; 1 h, co-incubation (C)): 25 µM
IC15 (HK cells, transporter 28; [7]): 3.5 µM
MIC (concentration needed to reach 15% inhibition) (HK cells, transporter 28; [8]): 4 µM
IC50 (HK cells, transporter 31 [3]; [9]): 51 µM
IC15 (HK cells, transporter 31 [3]; [10]): 9 µM
RV50 (concentration needed to lower relative viability by 50%) (HeLa Kyoto cells [4]; [11]): >50 µM
RV50 (concentration needed to lower relative viability by 50%) (HeLa Kyoto cells [4]; [6]): >100 µM
inhibition of trypsin (in words) (trypsin): inhibit only cathepsin B
inhibition of cathepsin L (in words) (cathepsin L): inhibit only cathepsin B
inhibition of cathepsin B (in words) (cathepsin B): inhibit only cathepsin B
viability at 7 h, 50 µM (in vitro): 96%

CCN1C(=O)C2SSSSC1C(=O)N2CC(=O)O (centres unmarked) [Compound 47, reference compound]
IC50 (HK cells, transporter 28; pre-incubation (P)): > 10 µM
IC15 (HK cells, transporter 28; read-out: MIC (concentration needed to reach 15% inhibition), transporter 28 5 μM, pre-incubation (P)): > 10 µM
inhibition of CTO 28 uptake (heatmap) (HK cells, transporter 28; pre-incubation conditions): –
MIC (concentration needed to reach 15% inhibition) (HK cells, transporter 28; [12]): >10 µM
RV50 (concentration needed to lower relative viability by 50%) (HeLa Kyoto cells [4]; [13]): >10 µM
IC50 (HK cells, transporter 31 [1]): 1.3 µM
IC50 (HK cells, transporter 32): 50 µM
MIC (concentration needed to reach 15% inhibition) (HK cells, transporter 32): 2 µM (≈ 0.653 µg/mL)
viability at 7 h, 50 µM (in vitro): 70%
RV50 (concentration needed to lower relative viability by 50%) (HeLa Kyoto cells [2]): 35 µM

CC#CI1OC(=O)c2ccccc21 [Compound 49, reference compound]
IC15 (HK cells, transporter 28; 1 h, read-out: MIC (concentration needed to reach 15% inhibition), transporter 28 5 μM, pre-incubation (P)): 8.7 µM
IC50 (HK cells, transporter 28; pre-incubation (P)): 53 µM
MIC (concentration needed to reach 15% inhibition) (HK cells, transporter 28; [12]): 9 µM (≈ 2.57 µg/mL)
RV50 (concentration needed to lower relative viability by 50%) (HeLa Kyoto cells [4]; [13]): >50 µM
IC50 (HK cells, transporter 31 [1]): 40 µM
MIC (concentration needed to reach 15% inhibition) (HK cells, transporter 31 [1]): 4 µM (≈ 1.14 µg/mL)
IC50 (HK cells, transporter 32): 10 µM
MIC (concentration needed to reach 15% inhibition) (HK cells, transporter 32): 0.3 µM (≈ 0.0858 µg/mL)
viability at 7 h, 5 µM (in vitro): 92%
RV50 (concentration needed to lower relative viability by 50%) (HeLa Kyoto cells [2]): 60 µM

CC(C)(C)OC(=O)NCCNC(=O)O[C@H]1CSS(=O)(=O)C[C@H]1O [Compound 34]
IC50 (HK cells, transporter 28; 1 h, co-incubation (C)): 26 µM
IC15 (HK cells, transporter 28; [7]): 1.2 µM
MIC (concentration needed to reach 15% inhibition) (HK cells, transporter 28; [8]): 1 µM
IC50 (HK cells, transporter 31 [3]; [9]): > 100 µM
IC15 (HK cells, transporter 31 [3]; [10]): 16 µM
IC15 (HK cells, transporter 31 [3]; Homo sapiens, 1 h, pre-incubation (P)): 3 µM
IC50 (HK cells, transporter 31 [3]; Homo sapiens, read-out: IC50 (concentration needed to reach 50% inhibition), transporter 31 10 μM, pre-incubation (P)): > 100 µM
MIC (concentration needed to reach 15% inhibition) (HK cells, transporter 31 [3]; transporter 31 10 μM, pre-incubation (P)): 3 µM (≈ 1.11 µg/mL)
RV50 (concentration needed to lower relative viability by 50%) (HeLa Kyoto cells [4]; [11]): >50 µM
RV50 (concentration needed to lower relative viability by 50%) (HeLa Kyoto cells [4]; [6]): >100 µM
RV50 (concentration needed to lower relative viability by 50%) (HeLa Kyoto cells [4]; with transporter 31, pre-incubation (P)): >100 µM
inhibition of trypsin (in words) (trypsin): inhibit only cathepsin B
inhibition of cathepsin L (in words) (cathepsin L): inhibit only cathepsin B
inhibition of cathepsin B (in words) (cathepsin B): inhibit only cathepsin B
viability at 7 h, 50 µM (in vitro): 76%

— article PMC9088311, “Cyclic Thiosulfonates for Thiol-Mediated Uptake: Cascade Exchangers, Transporters, Inhibitors” (JACS Au, 2022)
